Reference: patent publication US7803757B2, “Peptides based on the sequence of human lactoferrin and their use” (PharmaSurgics in Sweden AB, priority 1998, dated 2010)
≈ marks a conversion by molar mass, not a printed value. Like-named read-outs stand apart in the source and are kept apart here. Bridge positions count the residues as written; N and C are the ends. Ends that are not written are not given here. Peptide text beside a SMILES is read from it. * marks the point of attachment. Acm = CC(=O)NC*

Key:
Format in all cases: cell-based
P. aeruginosa = experiment: killing of bacteria at fixed peptide concentration, P. aeruginosa (Example 12); details: peptide 25 μg/ml
Procedure: (§1) In this example, the peptides according to the invention were used to study the effect on the killing of different bacteria.
(§2) The peptides were used at a concentration of 25 μg/ml.

E. faecalis = experiment: killing of bacteria at fixed peptide concentration, E. faecalis (Example 12); details: peptide 25 μg/ml
Procedure: as §1, §2

S. aureus = experiment: killing of bacteria at fixed peptide concentration, S. aureus (Example 12); details: peptide 25 μg/ml
Procedure: as §1, §2

[1] = test system: C. albicans yeast cells (ATCC64549); experiment: killing and growth inhibition of C. albicans at pH 4.5 (Example 11); design: key to C. albicans inhibition (OD650): + = no increase in OD650 is seen; − = OD650 continues to increase; details: pH 4.5, 1% BHI, 25 μg/ml of the peptide; for C. albicans inhibition (OD650): OD650 after an additional 18 hours; for C. albicans killing: 99% / C. albicans killing: 100%: 2 hours
Procedure: C. albicans yeast cells (ATCC64549) were incubated for 2 hours at pH 4.5 in BHI medium diluted to 1% of the original concentration containing 25 µg/ml of the peptide. Thereafter the fungal solutions were cultured on blood agar plates. OD650 was measured after incubation during an additional 18 hours. The fungicidal effect of the peptides on C. albicans was determined as the ability of the peptide to kill 100% and 99%, respectively, of the fungus, while the growth inhibitory effect was determined by measuring the OD650. An inhibitory effect existed when no increase in OD650 was recorded.

S. epidermis = experiment: killing of bacteria at fixed peptide concentration, S. epidermis (Example 12); details: peptide 25 μg/ml
Procedure: as §1, §2

C. albicans (ATCC64549) = test system: C. albicans (ATCC64549)
Procedure: (§3) In the examples, the minimal microbicidal concentrations (MMC) and minimal inhibitory concentrations (MIC) were determined as follows, unless otherwise specified in the examples. Bacterial or fungal strains were cultured in BHI medium over night at 37° C. A volume of the culture was transferred to a new tube with BHI and incubated for two more hours. Thereafter the cells were spun down and the pellet was suspended in BHI medium diluted 1/100 (1% BHI). The concentration of bacterial or fungal cells was spectrophotometrically determined at 650 nm. The microbial concentrations were also determined by viable counts. Peptides serially diluted in 1% BHI by twofold or tenfold steps were added in triplicate to the wells of a microtiterplate (200 μl per well). The bacterial or fungal cell solutions were added in 10 μl volumes to give a final concentration of approximately 1-5×10^5 cells per ml in the well. The microplate was incubated at 37° C. in a humid chamber for two hours. Thereafter 5 μl was taken from each well and added as a drop onto a blood agar plate and incubated over night at 37° C. The microplate was incubated for another 20 hours at 37° C. and thereafter analysed spectrophotometrically at 650 nm in a microplate reader (Emax, Molecular Devices, USA). The concentration of peptide causing a 99% reduction of the inoculum after 2 hours of incubation was defined as the MMC99%. The MIC value was defined as the concentration giving no increase in the absorbance value above the background level after 20 hours of incubation.
(§4) C. albicans (ATCC64549) and E. coli O6, respectively, were incubated with the different peptides. The experiments were performed with 1, 10, 25 and 100 μg/ml of peptide.

E. coli O6 = test system: E. coli O6
Procedure: as §3, §4

K. pneumoniae = experiment: killing of bacteria at fixed peptide concentration, K. pneumoniae (Example 12); details: peptide 25 μg/ml
Procedure: as §1, §2

E. coli O14 = experiment: bactericidal and growth inhibitory activity, E. coli O14 (Example 9); details: for Concentration of agent for 100% killing: E. coli O14, 2 hours; for Concentration of agent for inhibition of growth: E. coli O14, spectrophotometrically after 20 hours
Procedure: E. coli O14 was incubated as described above in the presence of the peptides during 2 hours. The bactericidal activity was measured in the same way as described above.
The inhibition of growth was measured spectrophotometrically after incubation during 20 hours.

[2] = test system: Candida albicans ATCC 64549; experiment: fungicidal and growth inhibitory activity, Candida albicans ATCC 64549 (Example 8); details: for Concentration of agent for 100% killing: C. albicans ATCC 64549 1·10^5/ml, 2 hours 37° C., diluted BHI; for Concentration of agent for inhibition of growth: C. albicans ATCC 64549, spectrophotometrically after 20 hours
Procedure: Candida albicans ATCC 64549 (1·10^5/ml) was incubated in the presence of the peptides during 2 hours at 37° C. in diluted growth medium (BHI, twofold serial dilutions starting with 50 μg/ml). The fungicidal activity was measured by culturing 5 μl from each incubation well on Saboroud agar plates.
The inhibition of growth was measured spectrophotometrically after 20 hours of incubation.

[3] = C. albicans, tested at 1, 10, 25 and 100 μg/ml of peptide
[4] = E. coli O6, tested at 1, 10, 25 and 100 μg/ml of peptide

Compound	killing of bacteria: P. aeruginosa (P. aeruginosa)	killing of bacteria: E. faecalis (E. faecalis)	killing of bacteria: S. aureus (S. aureus)	C. albicans inhibition (OD650) [1]	C. albicans killing: 99% [1]	C. albicans killing: 100% [1]	killing of bacteria: S. epidermis (S. epidermis)	MIC (C. albicans (ATCC64549); ATCC64549) [µg/mL]	MMC99% (C. albicans (ATCC64549); [3]) [µg/mL]	MMC99% (E. coli O6; [4]) [µg/mL]	MIC (E. coli O6; O6) [µg/mL]	killing of bacteria: K. pneumoniae (K. pneumoniae)	MIC (C. albicans (ATCC64549); [3]) [µg/mL]	MIC (E. coli O6; [4]) [µg/mL]	Concentration of agent for 100% killing (E. coli O14) [µg/mL]	Concentration of agent for inhibition of growth (E. coli O14) [µg/mL]	Concentration of agent for 100% killing [2] [µg/mL]	Concentration of agent for inhibition of growth [2] [µg/mL]
QWQRNMRKVR [Peptide 40]	− (− = less than 99% of the bacteria are killed)	− (− = less than 99% of the bacteria are killed)	− (− = less than 99% of the bacteria are killed)	−	− (− = less than 100/99% of the bacteria are killed)	− (− = less than 100/99% of the bacteria are killed)	+ (+ = 99% of the bacteria are killed)	25	25	>25	>25	− (− = less than 99% of the bacteria are killed)						
EATKCFQWQRNMRKVR [Peptide 64]	− (− = less than 99% of the bacteria are killed)	+ (+ = 99% of the bacteria are killed)	+ (+ = 99% of the bacteria are killed)	+	+ (+ = 100/99% of the bacteria are killed)	− (− = less than 100/99% of the bacteria are killed)	+ (+ = 99% of the bacteria are killed)	10	25	10	10	− (− = less than 99% of the bacteria are killed)						
FQWQRNMRKVR [Peptide 44]	− (− = less than 99% of the bacteria are killed)	+ (+ = 99% of the bacteria are killed)	+ (+ = 99% of the bacteria are killed)	−	− (− = less than 100/99% of the bacteria are killed)	− (− = less than 100/99% of the bacteria are killed)	+ (+ = 99% of the bacteria are killed)	10	10	10	10	− (− = less than 99% of the bacteria are killed)						
Peptide 57: 14 amino acids, modified positions 18-31 of human lactoferrin; sequence only in sequence listing (TKKFQWQRNMRKVR)	+ (+ = 99% of the bacteria are killed)	+ (+ = 99% of the bacteria are killed)	+ (+ = 99% of the bacteria are killed)	+	+ (+ = 100/99% of the bacteria are killed)	+ (+ = 100/99% of the bacteria are killed)	+ (+ = 99% of the bacteria are killed)		25	10		+ (+ = 99% of the bacteria are killed)	10	10				
KCFQWQRNMRKVRGPPVSCI [Morinaga 24] (KCFQWQRNMRKVRGPPVSCI; also: cyclic peptide, ring type not given here) [reference compound]															25	6.2	12.5	12.5
Peptide 2: SEQ. ID. NO. 1 with X1 E, X2 A, X5 C, X7 Q, X11 N, X17-25 G-P-P-V-S-C-I-K-R; cysteines acetamidomethyl protected (Ac-EATKC(Acm)FQWQRNMRKVRGPPVSC(Acm)IKR-NH2)															25	6.2	6.2	6.2
CSCC[C@@H]1NC(=O)[C@@H](NC(=O)[C@H](CCCNC(=N)N)NC(=O)[C@@H]2CC(=O)NCCCC[C@H](NC(=O)[C@H](CCCCN)NC(=O)[C@@H](NC(C)=O)[C@@H](C)O)C(=O)N[C@@H](Cc3ccccc3)C(=O)N[C@@H](CCC(N)=O)C(=O)N[C@@H](Cc3c[nH]c4ccccc34)C(=O)N2)CCCCNC(=O)C[C@@H](C(=O)N[C@@H](CCCNC(=N)N)C(N)=O)NC(=O)[C@H](CCCCN)NC(=O)[C@H](CCCNC(=N)N)NC1=O [Peptide 61] (Ac-TKKFQWDRKMRKDR-NH2; lactam 3-7, 9-13; N-terminus and C-terminus assumed)	+ (+ = 99% of the bacteria are killed)	+ (+ = 99% of the bacteria are killed)	+ (+ = 99% of the bacteria are killed)	+	+ (+ = 100/99% of the bacteria are killed)	− (− = less than 100/99% of the bacteria are killed)	+ (+ = 99% of the bacteria are killed)	10 (≈ 5.19 µM)	10	10	10 (≈ 5.19 µM)	+ (+ = 99% of the bacteria are killed)						
Ac-TKCFQWQRNMRKVR-NH2 [Peptide 51]	+ (+ = 99% of the bacteria are killed)	+ (+ = 99% of the bacteria are killed)	+ (+ = 99% of the bacteria are killed)	+	+ (+ = 100/99% of the bacteria are killed)	+ (+ = 100/99% of the bacteria are killed)	+ (+ = 99% of the bacteria are killed)	10	10	10	10	+ (+ = 99% of the bacteria are killed)						
TKCFQWQRNMRKVR [Peptide 50]	+ (+ = 99% of the bacteria are killed)	+ (+ = 99% of the bacteria are killed)	+ (+ = 99% of the bacteria are killed)	+	+ (+ = 100/99% of the bacteria are killed)	+ (+ = 100/99% of the bacteria are killed)	+ (+ = 99% of the bacteria are killed)	10	10	10	10	+ (+ = 99% of the bacteria are killed)						
KCFQWQRNMRKVRGPPVSCI [Morinaga 25] (KCFQWQRNMRKVRGPPVSCI) [reference compound]															12.5	3.1	6.2	6.2
